Reference: US5705649A, “Protein staining compositions and methods” (Promega Corporation, priority 1995, dated 1998)

How the values were obtained:
[1] = tested on: bovine serum albumin (BSA); assay: Effect of solution pH on absorption in presence and absence of protein; assay type: physicochemical
Experimental: The effect of solution pH on the absorption of Promega Green 1 in the presence and absence of added protein was studied by dilution of Promega Green 1 solution at a ratio of 1:1000 (v/v) into various solutions containing 0 or 100 μg of protein (bovine serum albumin (BSA)) per ml of liquid. The solutions tested were highly acidic (1N HCl), moderately acidic (2% acetic acid), weakly acidic (50 mM ammonium acetate pH 4.0), weakly basic (50 mM ammonium bicarbonate pH 7.8), and strongly basic (500 mM Tris base). The absorption spectra of the solutions were measured from […] and the peak absorbances are reported below.

[2] = tested on: glutamate dehydrogenase; assay: Quantitation of proteins separated by SDS-PAGE (dye extracted from excised bands); conditions: 55 Kd
Experimental: (§1) The samples used were prepared with Promega Mid-Range Molecular Weight Markers solution (Promega Corp., Madison, Wis., USA, Catalog No. V5231) (referred to hereinafter as "Promega Mid-Range [Molecular Weight] Markers or Standards") diluted into Sample Buffer. Promega Mid-Range Molecular Weight Markers is a solution, at about 0.5 mg/ml, of each of the following proteins as a molecular weight standard: phosphorylase B (apparent molecular weight: 97,400 daltons ("d")), bovine serum albumin (apparent molecular weight: 66,200 d), glutamate dehydrogenase (apparent molecular weight: 55,000 d), ovalbumin (apparent molecular weight: 42,700 d), aldolase (apparent molecular weight: 40,000 d), carbonic anhydrase (apparent molecular weight: 31,000 d), soybean trypsin inhibitor (apparent molecular weight: 21,500 d), and lysozyme (apparent molecular weight: 14,400 d). […] The samples were heated to 95° C. for 10 minutes with occasional vortex treatment in 1.5 ml Eppendorf centrifuge tubes and then centrifuged in an Eppendorf centrifuge for 20 seconds to ensure that the protein in the sample was denatured and well mixed.
(§2) A 10% SDS-PAGE gel was made as described in the Example 5. Promega Mid-Range Molecular Weight Standards were diluted into loading buffer to produce solutions containing 2.0, 1.0, 0.5, and 0.25 μg of protein per band in 5 μl of solution. Duplicate 5 μl solutions of each of these solutions were loaded into 1 of the 10 sample wells in the gel after the solutions were heated at 95° C. for 10 minutes. The gel was then electrophoresed at 160 V until the running dye just eluted from the bottom of the gel. The gel was destained, and signal from stained protein enhanced, for 90 minutes in 30% methanol, 4% acetic acid.
(§3) One of the pair of duplicate bands for the 97.4, 66.2, 55.0 and 42.7 kilodalton standards from the lanes containing 2.0, 1.0, 0.5, and 0.25 μg of protein per band were excised with a razor blade as were two control gel segments from regions of the gel not containing protein. The excised segments were placed in individual 1.5 ml Eppendorf tubes containing 2% SDS and allowed to incubate at room temperature for 72 hours. After this time, the solutions were removed from the extracted segments and acetic acid was added to 2% (v/v) final concentration. The absorption of the solutions at […] was then measured.

[3] = tested on: bovine serum albumin; assay: as above; conditions: 66 Kd
Experimental: as §1, §2, §3

[4] = tested on: phosphorylase B; assay: as above; conditions: 97 kD
Experimental: as §1, §2, §3

[5] = tested on: ovalbumin; assay: as above; conditions: 43 Kd
Experimental: as §1, §2, §3

[6] = tested on: Promega Mid-Range Molecular Weight Markers; assay: Recovery of protein using novel recovery method (liquid reservoir in gel); conditions: 8% SDS-PAGE gel, slots below bands
From the text: Because Promega Green 1 can be used to stain protein during electrophoretic separations, we determined that proteins separated by gel electrophoresis can be recovered into a liquid reservoir placed in the gel. This is possible only with in-situ stained proteins because it would not be obvious where to place the liquid reservoir otherwise.
Accordingly, an 8% SDS-PAGE gel was made, loaded and run as described in the preceding example. After the run was complete, one of the glass plates encasing the gel was removed and 1.0×0.3 cm slots were excised from the gel immediately below the 97, 66, 40, and 31 kilodalton standards The gel was then placed in a flat bed electrophoresis apparatus which had its buffer chambers filled with 25 mM tris base, 192 mM glycine (electrode buffer) to the level of the central, raised portion of the apparatus. The gel was placed in the apparatus such that the acrylamide gel above the remaining glass plate was filled with electrode buffer. The slots were also filled with electrode buffer and electric connection was made between the gel and the buffer chambers by use of Whatman 3 mM paper wicks soaked in transfer buffer and then 160 V was applied to the apparatus for 2 minutes. After this, the buffer in the slots was removed and placed in 1.5 ml Eppendorf tubes, the slots were refilled with fresh electrode buffer and the voltage was reapplied. […]

[7] = tested on: Promega Mid-Range Molecular Weight Standards; assay: In-situ staining of proteins during transfer to immobilizing supports
Experimental: The use of immobilizing supports such as nitrocellulose, nylon, glass or polyvinyl difluoride has become very common in the immunochemical or sequence analysis of proteins. […] Two Whatman 3 mM sheets were soaked in transfer buffer and these components were then used to construct a transfer sandwich composed of one sheet of Whatman paper, the SDS-PAGE gel, the Immobilon sheet, and the final sheet of Whatman. The sandwich was placed in a Hoeffer transfer apparatus and oriented in the apparatus such that the Immobilon side of the sandwich was oriented toward the positive electrode. The apparatus was placed at 4° C. and 10 V were applied to the apparatus for 30 minutes then the voltage was increased to 30 V for an additional 120 minutes.
The Immobilon membrane was then soaked in 45% methanol, 5% acetic acid for 2 minutes.

[8] = moderately acidic (2% acetic acid), protein absent
[9] = moderately acidic (2% acetic acid), protein present (100 μg/ml BSA)
[10] = strongly acidic (1N HCl), protein absent
[11] = strongly acidic (1N HCl), protein present (100 μg/ml BSA)
[12] = strongly basic (500 mM Tris base), protein absent
[13] = strongly basic (500 mM Tris base), protein present (100 μg/ml BSA)
[14] = weakly acidic (50 mM ammonium acetate pH 4.0), protein absent
[15] = weakly acidic (50 mM ammonium acetate pH 4.0), protein present (100 μg/ml BSA)
[16] = weakly basic (50 mM ammonium bicarbonate pH 7.8), protein absent
[17] = weakly basic (50 mM ammonium bicarbonate pH 7.8), protein present (100 μg/ml BSA)

ABS (peak absorbance) [1, 8]: 0.83
absorption max [1, 8]: 631 nm
ABS (peak absorbance) [1, 9]: 0.98
absorption max [1, 9]: 635 nm
ABS (peak absorbance) [1, 10]: 0.27
absorption max [1, 10]: 649 nm
ABS (peak absorbance) [1, 11]: 0.39
absorption max [1, 11]: 641 nm
ABS (peak absorbance) [1, 12]: 0.22
absorption max [1, 12]: 637 nm
ABS (peak absorbance) [1, 13]: 0.128
absorption max [1, 13]: 637 nm
ABS (peak absorbance) [1, 14]: 0.49
absorption max [1, 14]: 636 nm
ABS (peak absorbance) [1, 15]: 0.25
absorption max [1, 15]: 638 nm
ABS (peak absorbance) [1, 16]: 0.49
absorption max [1, 16]: 636 nm
ABS (peak absorbance) [1, 17]: 0.26
absorption max [1, 17]: 637 nm
Absorbance at 630 nm ([2]; 0.25 μg/band): .053
Absorbance at 630 nm ([2]; 0.50 μg/band): .063
Absorbance at 630 nm ([2]; 1.00 μg/band): .105
Absorbance at 630 nm ([2]; 2.00 μg/band): .138
Absorbance at 630 nm ([3]; 0.25 μg/band): .052
Absorbance at 630 nm ([3]; 0.50 μg/band): .074
Absorbance at 630 nm ([3]; 1.00 μg/band): .138
Absorbance at 630 nm ([3]; 2.00 μg/band): .192
Absorbance at 630 nm ([4]; 0.25 μg/band): .032
Absorbance at 630 nm ([4]; 0.50 μg/band): .053
Absorbance at 630 nm ([4]; 1.00 μg/band): .083
Absorbance at 630 nm ([4]; 2.00 μg/band): .128
Absorbance at 630 nm ([5]; 0.25 μg/band): .042
Absorbance at 630 nm ([5]; 0.50 μg/band): .064
Absorbance at 630 nm ([5]; 1.00 μg/band): .126
Absorbance at 630 nm ([5]; 2.00 μg/band): .195
Compound: CCCCCCCC(=O)N(c1ccc(OCC)cc1)c1ccc(C(=C2C=CC(=[N+](CC)Cc3cccc(S(=O)(=O)[O-])c3)C=C2)c2ccc(N(CC)Cc3cccc(S(=O)(=O)O)c3)cc2)cc1 [Promega Green 1]
capture of protein bands in liquid reservoir [6]: the desired protein bands had been captured by this method
visibility of bands on membrane after enhancement ([7]; 45% methanol, 5% acetic acid, 2 minutes): the protein band at all concentrations became easily visible
lowest protein per band visible on Immobilon membrane after transfer ([7]; before enhancement): 1.0 µg
